Results: patent US20230065158A1, “OXABICYCLOHEPTANES FOR TREATMENT OF SMALL CELL LUNG CANCER” (Lixte Biotechnology, Inc., priority 2021, published 2023)
Where two headings read alike, the source gives them in different places.

Legend:
H524 cells [1] = test: Transendothelial extravasation assay through HUVEC monolayer, H524; type: cell-based; settings: after 20 h of drug treatment
Description: FIGS. 3A-3H depict SCLC cell invasion through HUVEC monolayer. FIGS. 3A-3D: Graphical representation of H524/H69 cell ability to disrupt a confluent HUVEC monolayer using an electrical substrate-impedance sensing system. Arrows indicate time point when cells were added. Inserts show mean values and SD for each group after 20 h of drug treatment. After treatment, cell viability was counted using an Auto T4 Cell Counter (Nexcelom Cellometer). […] Whole cell Pt accumulation. Graphical representation of LB-100 effect on platinum uptake by SCLC cells. Cells were pretreated with LB-100 (H524—5 μM; H69—20 μM) overnight, then treated with carboplatin for one or four hours (H524—10 μM; H69—30 μM). Whole cell pellet was used for platinum (Pt) measurement. Values are normalized to total protein concentration. FIGS. 3E and 3F: Panels show mean values and SD of Pt accumulation for each group. […] Effect of LB-100 on PP2A expression and apoptosis regulatory proteins in H524 and H69 cells. […]
To discern the effect of LB100 on cell invasion, we tested the ability of SCLC cells to invade though a layer of endothelial cells (ECs). Toward this end, we measured the trans-endothelial monolayer resistance using an electrical substrate-impedance sensing system (Applied Biophysics, Troy, N.Y., USA), as previously described (24). […]

H524 and H69 cells = test: Colony formation assay; type: cell-based; settings: both cell lines; H524/H69: LB-100 2.5/20 μM, carboplatin 4/20 μM, etoposide 3/30 μM
Description: (§1) A Mann-Whitney U test was used for comparison between the normal and SCLC samples. FIG. 1B: IHC for PP2A was conducted on TMA tissue sections and images were captured at 4× or 20× using a 3D-Histech PANNORAMIC SCAN whole slide scanner (3D-Histech, Budapest, Hungary). […] TMAs were scored in normal (n=24) and tumor (n=79) cores on a scale from 0 (no staining/no protein expression) to 3+(strong staining/high protein expression). FIG. 1C: Summary bar graph of the average PP2A subunit staining. IHC staining intensity of normal and tumor cores. […] FIG. 1D: In order to compare the expression of PP2A subunits A and C, cell lysates from seven SCLC cell lines and HBEC 3KT (non-malignant cell line) were subjected to western blotting. FIG. 1E: PP2A activity was determined using a serine/threonine phosphatase activity assay (Millipore) after 24 h exposure to cantharidin (10 μM) and LB-100 (5 μM). […] The Cell Counting Kit-8 assay detected cell H524 and H69 cell viability. […] FIGS. 1I-1K: Graphs depict the mean+SEM of percent viability for cells (n=3). Colony formation assays were used to count the ability of H524 (FIGS. 11 and 1J) and H69 (FIGS. 1K and 1L) cells to form colonies. […] Representative images of colonies at 4× are shown under the graph (n=2).*p<0.05; **, p<0.01; *** p<0.001; ****, p<0.0001. Experiments were repeated in triplicate and representative data are shown.

H69 cells = test: Seahorse XF Real-Time ATP rate assay, H69; type: cell-based; settings: LB-100 10 μM, carboplatin 10 μM
[2] = system: H69 cells mouse xenograft; test: Subcutaneous H69 cells mouse xenograft; type: in vivo, Athymic nude mice; settings: for tumor weight compared to vehicle-treated group: end of experiment
Description: FIGS. 8A-8E depicts results of LB-100 activity alone and with carboplatin against H69 cells mouse xenograft. Tumor size (FIG. 8A) and body weights (FIG. 8B) were measured. Inhibition of tumor growth after LB-100 (*p<0.05), carboplatin (***p<0.001) and their combination (***p<0.001) were delivered via i.p. injections. P values show significant differences compared with vehicle group. FIG. 8C: Tumor images from vehicle and drug-treated groups. FIG. 8D: Tumor mass was measured at the end of experiment. […] FIG. 8E: Columns show total platinum (Pt) concentration in mouse tumors with carboplatin and LB-100/carboplatin treatments (n=3 as technical replicates) Pt mass was normalized to tumor total mass. Statistical analysis was performed using an ANOVA with Tukey post hoc-test (*p<0.05), carboplatin (**p<0.01).
Animal studies were performed according to an IACUC protocol approved by City of Hope National Medical Center Animal Care and Use Committee. Athymic nude mice (5-6 weeks of age) were purchased from NCI (Frederick, Md.). Mice were injected subcutaneously on their right flank with H69 cells suspended (2×106) in 100 μl of PBS and 100 μl of matrigel (BD Biosciences, San Jose, Calif.). Tumor growth was measured in two dimensions with caliper and when surface tumor was visible (45-50 mm2) mice were randomized in four groups as follow: vehicle (PBS, i.p. 3 times a week), LB100 (0.25 mg/kg, i.p. 3 times a week), carboplatin (50 mg/kg, i.p. 2 times a week) and drug combination (LB100/carboplatin i.p.) for 30 days. At the end of the study, the mice were euthanized by CO2 asphyxiation followed by cervical dislocation. Tumor tissues were excised, weighed, and subsequently fixed in 10% buffered formalin and embedded in paraffin for histological analysis.

H524 cells [3] = test: Cell Counting Kit-8 cytotoxicity and drug combination, H524
Description: as §1

H526 cells = test: Cell Counting Kit-8 cytotoxicity, H526
Description: To determine specific cytotoxicity, we used Cell Counting Kit-8 (Dojindo Molecular Technologies, Rockville, Md.) as previously described (50).

C[NH+]1CCN(C(=O)C2C(C(=O)O)[C@H]3CC[C@@H]2O3)CC1 (stereo in doubt) [LB-100, 3-[(4-Methylpiperazin-1-yl)carbonyl]-7-oxabicyclo[2.2.1]heptane-2-carboxylic acid]
% change of HUVEC barrier disruption (transmigration) (H524 cells [1]): 16.9+2%
colony formation (H524 and H69 cells): significantly reduced colony formation
drop of total ATP production rate (H69 cells): 54%
tumor weight compared to vehicle-treated group [2]: significant reduction in tumor weight
tumor size ([2]; i.p., 30 days): statistically significant reduction in tumor size
IC50 (H524 cells [3]; Homo sapiens, NCI-H524, 72 h, read-out: Cytotoxicity IC50, H524, 72 hours): < 8 µM
IC50 (H524 cells [3]; human, 72 h): 5.3 µM
IC50 (H526 cells; Homo sapiens, NCI-H526, 72 h, read-out: Cytotoxicity IC50, H526): < 8 µM

N.N.O=C([O-])C1(C(=O)[O-])CCC1.[Pt+2] [Carboplatin, reference compound]
% change of HUVEC barrier disruption (transmigration) (H524 cells [1]): 18.2 ± 0.4%
colony formation (H524 and H69 cells): significantly reduced colony formation
drop of total ATP production rate (H69 cells): 12%
tumor weight compared to vehicle-treated group [2]: significant reduction in tumor weight
IC50 (H524 cells [3]; read-out: Cytotoxicity IC50, H524, 72 hours): 8.2 µM
IC50 (H526 cells; read-out: Cytotoxicity IC50, H526, 72 hours): 33.2 µM
